From publication PMC6272230, “Uses of 3-(2-Bromoacetyl)-2H-chromen-2-one in the Synthesis of Heterocyclic Compounds Incorporating Coumarin: Synthesis, Characterization and Cytotoxicity” (Molecules, 2015)
Where two headings read alike, the source gives them in different places.

How the values were obtained:
[1] = system: human colon cancer (DLD1); test: In vitro cytotoxicity against DLD1 cells; assay type: cell-based
Protocol: (§1) The heterocyclic compounds, prepared in this study, were evaluated according to standard protocols for their in vitro cytotoxicity against six human cancer cell lines including cells derived from human gastric cancer (NUGC), human colon cancer (DLD1), human liver cancer (HA22T and HEPG2), nasopharyngeal carcinoma (HONE1), human breast cancer (MCF) and normal fibroblast cells (WI38). For comparison purposes, CHS 828, a pyridyl cyanoguanidine, was used as a standard antitumor drug (Figure 2). […] All the synthesized compounds were tested for their cytotoxicity against normal fibroblast cells.
(§2) Fetal bovine serum (FBS) and L-glutamine, were purchased from Gibco Invitrogen Co. (Scotland, UK). RPMI-1640 medium was purchased from Cambrex (East Rutherford, NJ, USA). Dimethyl sulfoxide (DMSO), CHS 828, penicillin, streptomycin and sulforhodamine B (SRB) were purchased from Sigma Chemical Co. (Saint Louis, MO, USA).
(§3) Cell cultures were obtained from the European Collection of Cell Cultures (ECACC, Salisbury, UK) and human gastric cancer (NUGC), human colon cancer (DLD1), human liver cancer (HA22T and HEPG2), human breast cancer (MCF), nasopharyngeal carcinoma (HONE1) and normal fibroblast cells (WI38) were kindly provided by the National Cancer Institute (NCI, Cairo, Egypt). They were grown as a monolayer and routinely maintained in RPMI-1640 medium supplemented with 5% heat inactivated FBS, 2 mM glutamine and antibiotics (penicillin 100 U/mL, streptomycin 100 µg/mL) at 37 °C in a humidified atmosphere containing 5% CO2. Exponentially growing cells were obtained by plating 1.5 × 10^5 cells/mL for the six human cancer cell lines followed by 24 h of incubation. The effect of the vehicle solvent (DMSO) on the growth of these cell lines was evaluated in all the experiments by exposing untreated control cells to the maximum concentration (0.5%) of DMSO used in each assay.

[2] = system: human gastric cancer (NUGC); test: In vitro cytotoxicity against NUGC cells; assay type: cell-based; conditions: read-out: Cytotoxicity (IC50 in nM) NUGC
Protocol: as §1, §2, §3

[3] = system: human liver cancer (HEPG2); test: In vitro cytotoxicity against HEPG2 cells; assay type: cell-based
Protocol: as §1, §2, §3

[4] = system: human liver cancer (HA22T); test: In vitro cytotoxicity against HA22T cells; assay type: cell-based; conditions: read-out: Cytotoxicity (IC50 in nM) HA22T
Protocol: as §1, §2, §3

[5] = system: nasopharyngeal carcinoma (HONE1); test: In vitro cytotoxicity against HONE1 cells; assay type: cell-based; conditions: Homo sapiens
Protocol: as §1, §2, §3

[6] = system: human breast cancer (MCF); test: In vitro cytotoxicity against MCF cells; assay type: cell-based; conditions: read-out: Cytotoxicity (IC50 in nM) MCF
Protocol: as §1, §2, §3

[7] = In vitro cytotoxicity against normal fibroblast cells WI38; assay type: cell-based; conditions: human, concentration producing 50% reduction in cell growth
Protocol: as §1, §2, §3

[8] = DLD-1, DLDI, colon cancer, concentration producing 50% reduction in cell growth, read-out: Cytotoxicity (IC50 in nM) DLDI
[9] = gastric cancer, concentration producing 50% reduction in cell growth
[10] = HEPG2, liver cancer, concentration producing 50% reduction in cell growth, read-out: Cytotoxicity (IC50 in nM) HEPG2
[11] = liver cancer, concentration producing 50% reduction in cell growth
[12] = HONE1, nasopharyngeal carcinoma, concentration producing 50% reduction in cell growth, read-out: Cytotoxicity (IC50 in nM) HONE1
[13] = MCF, breast cancer, concentration producing 50% reduction in cell growth

Row | Structure (SMILES) | melting point [°C] | IC50 ([1]; DLD-1, read-out: Cytotoxicity (IC50 in nM) DLDI) [nM] | IC50 [2] [nM] | IC50 ([3]; HepG2, read-out: Cytotoxicity (IC50 in nM) HEPG2) [nM] | IC50 [4] [nM] | IC50 ([5]; HONE1, read-out: Cytotoxicity (IC50 in nM) HONE1) [nM] | IC50 [6] [nM] | IC50 [1, 8] [nM] | IC50 [2, 9] [nM] | IC50 [3, 10] [nM] | IC50 [4, 11] [nM] | IC50 [5, 12] [nM] | IC50 [6, 13] [nM] | IC50 [7] [nM]
1 | N#CN=C(NCCCCCCOc1ccc(Cl)cc1)Nc1ccncc1 [CHS 828, reference compound] |  | 2320 | 25 | 1240 | 2070 | 15 | 18 |  |  |  |  |  |  | 
2 | O=C(C(Br)=NNc1ccccc1)c1cc2ccccc2oc1=O [Compound 2, 2-oxo-2-(2-oxo-2H-chromen-3-yl)-N'-phenylacetohydrazonoylbromide] | 88 to 90 |  |  |  |  |  |  | 60 | 48 | 174 | 1120 | 1480 | 288 | 
3 | N#CC(C#N)=C(CO)c1cc2ccccc2oc1=O [Compound 3, 2-(2-Hydroxy-1-(2-oxo-2H-chromen-3-yl)ethylidene)malononitrile] | 162 to 164 |  |  |  |  |  |  | 1280 | 1160 | 1230 | 1650 | 699 | 821 | 910
4 | N#Cc1c(N)sc(Br)c1-c1cc2ccccc2oc1=O [Compound 4a, 2-Amino-5-bromo-4-(2-oxo-2H-chromen-3-yl)thiophene-3-carbonitrile] | 180 to 182 |  |  |  |  |  |  | 50 | 32 | 221 | 27 | 228 | 2060 | 780
5 | CCOC(=O)c1c(N)sc(Br)c1-c1cc2ccccc2oc1=O [Compound 4b, Ethyl 2-amino-5-bromo-4-(2-oxo-2H-chromen-3-yl)thiophene-3-carboxylate] | 177 to 179 |  |  |  |  |  |  | 167 | 84 | 2020 | 219 | 1210 | 1140 | 
6 | O=c1oc2ccccc2cc1-c1cn(-c2ccccc2)c(=Nc2ccccc2)s1 [Compound 5a, 3-(3-Phenyl-2-(phenylimino)-2,3-dihydrothiazol-5-yl)-2H-chromen-2-one] | 158 to 160 |  |  |  |  |  |  | 569 | 228 | 1110 | 213 | 2050 | 2010 | 632
7 | Cc1ccc(-n2cc(-c3cc4ccccc4oc3=O)sc2=Nc2ccccc2)cc1 [Compound 5b, 3-(2-(Phenylimino)-3-(p-tolyl)-2,3-dihydrothiazol-5-yl)-2H-chromen-2-one] | 99 to 101 |  |  |  |  |  |  | 1070 | 2210 | 1300 | 1290 | 2180 | 1230 | 489
8 | COc1ccc(-n2cc(-c3cc4ccccc4oc3=O)sc2=Nc2ccccc2)cc1 [Compound 5c, 3-(3-(4-Methoxyphenyl)-2-(phenylimino)-2,3-dihydrothiazol-5-yl)-2H-chromen-2-one] | 103 to 105 |  |  |  |  |  |  | 396 | 1620 | 2120 | 274 | 670 | 1180 | 490
9 | O=c1oc2ccccc2cc1-c1cn(-c2ccc(Cl)cc2)c(=Nc2ccccc2)s1 [Compound 5d, 3-(3-(4-Chlorophenyl)-2-(phenylimino)-2,3-dihydrothiazol-5-yl)-2H-chromen-2-one] | 123 to 125 |  |  |  |  |  |  | 163 | 38 | 3740 | 120 | 441 | 1260 | 860
10 | N#CC1=C(N)OC(c2cc3ccccc3oc2=O)=C(Br)C1c1ccccc1 (stereo not shown) [Compound 6a, 2-Amino-5-bromo-6-(2-oxo-2H-chromen-3-yl)-4-phenyl-4H-pyran-3-carbonitrile] | 140 to 142 |  |  |  |  |  |  | 303 | 1090 | 59 | 1240 | 1180 | 2180 | 
11 | N#CC1=C(N)OC(c2cc3ccccc3oc2=O)=C(Br)C1c1ccco1 (stereo not shown) [Compound 6d, 2-Amino-5-bromo-4-(furan-2-yl)-6-(2-oxo-2H-chromen-3-yl)-4H-pyran-3-carbonitrile] | 148 to 150 |  |  |  |  |  |  | 98 | 29 | 360 | 2110 | 279 | 931 | 
12 | N#CC1=C(N)NC(c2cc3ccccc3oc2=O)=C(Br)C1c1ccc(Cl)cc1 (stereo not shown) [Compound 7c, 2-Amino-5-bromo-4-(4-chlorophenyl)-6-(2-oxo-2H-chromen-3-yl)-1,4-dihydropyridine-3-carbonitrile] | 206 to 208 |  |  |  |  |  |  | 32 | 98 | 416 | 128 | 221 | 43 | 
13 | N#CC1=C(N)NC(c2cc3ccccc3oc2=O)=C(Br)C1c1ccco1 (stereo not shown) [Compound 7d, 2-Amino-5-bromo-4-(furan-2-yl)-6-(2-oxo-2H-chromen-3-yl)-1,4-dihydropyridine-3-carbonitrile] | 205 to 207 |  |  |  |  |  |  | 163 | 682 | 2730 | 52 | 1190 | 1130 | 

Continued, in another order:

Row | melting point [°C] | Structure (SMILES) | IC50 ([1]; DLD-1, read-out: Cytotoxicity (IC50 in nM) DLDI) [nM] | IC50 [2] [nM] | IC50 ([3]; HepG2, read-out: Cytotoxicity (IC50 in nM) HEPG2) [nM] | IC50 [4] [nM] | IC50 ([5]; HONE1, read-out: Cytotoxicity (IC50 in nM) HONE1) [nM] | IC50 [6] [nM] | IC50 [1, 8] [nM] | IC50 [2, 9] [nM] | IC50 [3, 10] [nM] | IC50 [4, 11] [nM] | IC50 [5, 12] [nM] | IC50 [6, 13] [nM] | IC50 [7] [nM]
14 | 218 to 220 | Nc1cc(-c2cc3ccccc3oc2=O)n[nH]1 [Compound 9a, 3-(5-Amino-1H-pyrazol-3-yl)-2H-chromen-2-one] |  |  |  |  |  |  | 48 | 3470 | 359 | 2170 | 442 | 1290 | 
15 | 158 to 160 | Nc1cc(-c2cc3ccccc3oc2=O)nn1-c1ccccc1 [Compound 9b, 3-(5-Amino-1-phenyl-1H-pyrazol-3-yl)-2H-chromen-2-one] |  |  |  |  |  |  | 2240 | 1120 | 415 | 1580 | 4270 | 1650 | 
16 | 113 to 115 | COc1ccc(C2C(C#N)=C(N)OC(c3cc4ccccc4oc3=O)=C2C#N)cc1 (stereo not shown) [Compound 10b, 2-Amino-4-(4-methoxyphenyl)-6-(2-oxo-2H-chromen-3-yl)-4H-pyran-3,5-dicarbonitrile] |  |  |  |  |  |  | 2280 | 1340 | 1320 | 89 | 2180 | 2120 | 
17 | 178 to 180 | N#CC1=C(N)OC(c2cc3ccccc3oc2=O)=C(C#N)C1c1ccc(Cl)cc1 (stereo not shown) [Compound 10c, 2-Amino-4-(4-chlorophenyl)-6-(2-oxo-2H-chromen-3-yl)-4H-pyran-3,5-dicarbonitrile] |  |  |  |  |  |  | 193 | 312 | 399 | 4170 | 89 | 584 | 
18 | 133 to 135 | N#CC1=C(N)OC(c2cc3ccccc3oc2=O)=C(C#N)C1c1ccco1 (stereo not shown) [Compound 10d, 2-Amino-4-(furan-2-yl)-6-(2-oxo-2H-chromen-3-yl)-4H-pyran-3,5-dicarbonitrile] |  |  |  |  |  |  | 68 | 47 | 3320 | 102 | 220 | 2250 | 
19 | 99 to 101 | COc1ccc(C2C(C#N)=C(N)NC(c3cc4ccccc4oc3=O)=C2C#N)cc1 (stereo not shown) [Compound 11b, 2-Amino-4-(4-methoxyphenyl)-6-(2-oxo-2H-chromen-3-yl)-1,4-dihydropyridine-3,5-dicarbonitrile] |  |  |  |  |  |  | 58 | 124 | 215 | 3060 | 1670 | 39 | 
20 | 197 to 199 | N#CC1=C(N)NC(c2cc3ccccc3oc2=O)=C(C#N)C1c1ccc(Cl)cc1 (stereo not shown) [Compound 11c, 2-Amino-4-(4-chlorophenyl)-6-(2-oxo-2H-chromen-3-yl)-1,4-dihydropyridine-3,5-dicarbonitrile] |  |  |  |  |  |  | 483 | 1280 | 424 | 2060 | 1770 | 839 | 
